Consider one compound from patent publication US20200190043A1, “2-[[5-(TRIFLUOROMETHYL)-1,2,4-OXADIAZOL-3-YL]ARYLOXY](THIO)ACETAMIDES FOR COMBATING PHYTOPATHOGENIC FUNGI” (BASF SE, priority 2017, published 2020).

In assay [1] the test system is Puccinia recondita. The assay is described as follows: Preventative control of brown rust on wheat (glass house trial). It counts as in vivo. Conditions: 63 ppm active compound, wheat seedlings, untreated plants 80% diseased leaf area. The method, then:
(§1) A mixture was prepared of acetone and/or dimethylsulfoxide and the wetting agent/emulsifier Wettol, which is based on ethoxylated alkylphenoles, in a relation (volume) solvent-emulsifier of 99 to 1 was added to the compound to give a total of 5 ml. Water was then added to a total volume of 100 ml. This stock solution was diluted with the described solvent-emulsifier-water mixture to the given concentration. II.4) Preventative Control of Brown Rust on Wheat Caused by Puccinia recondita The first two developed leaves of pot-grown wheat seedling were sprayed to run-off with an aqueous suspension, containing the concentration of active ingredient or their mixture as described below. The next day the plants were inoculated with spores of Puccinia recondita. To ensure the success the artificial inoculation, the plants were transferred to a humid chamber without light and a relative humidity of 95 to 99% and 20 to 24° C. for 24 hours. Then the trial plants were cultivated for 6 days in a greenhouse chamber at 20 to 24° C. and a relative humidity between 65 and 70%. The extent of fungal attack on the leaves was visually assessed as % diseased leaf area.

Assay [2] relates to Puccinia recondita. The assay is described as follows: Curative control of brown rust on wheat (glass house trial). In kind it is in vivo. Conditions: 63 ppm active compound, wheat seedlings, untreated plants 80% diseased leaf area. As to the method:
as §1, with “concentration. II.3) Curative” for “concentration. II.4) Preventative”, “were dusted” for “were sprayed to run-off with an aqueous suspension, containing the concentration of active ingredient or their mixture as described below. The next day the plants were inoculated”, “hours. The next day the plants were cultivated for 3 days in a greenhouse chamber at 20 to 24° C. and a relative humidity between 65 and 70%. Then the plants were sprayed to run-off with an aqueous suspension, containing the concentration of active ingredient or their mixture as described below. The plants could air-dry.” for “hours.”, “for 8” for “for 6”

In the case of `CN(C)C(=O)C(F)(F)Oc1ccc(-c2noc(C(F)(F)F)n2)cc1` [I-2], the results for the diseased leaf area with Puccinia recondita [1] and in the assay with Puccinia recondita [2] were 2% and 3%, respectively.
